Experimental data reported in article PMC9487510, “A Novel Oral GyrB/ParE Dual Binding Inhibitor Effective against Multidrug-Resistant Neisseria gonorrhoeae and Other High-Threat Pathogens” (Antimicrobial Agents and Chemotherapy, 2022).
≈ marks a conversion by molar mass, not a printed value. Like-named read-outs stand apart in the source and are kept apart here.

System: N. gonorrhoeae clinical isolates
Assay: MIC, agar dilution (CLSI)
Assay type: cell-based, Neisseria gonorrhoeae
Conditions: for MIC: read-out: MIC

CO/N=C(\C(=O)N[C@@H]1C(=O)N2C(C(=O)O)=C(CSc3nc(=O)c(=O)[nH]n3C)CS[C@H]12)c1csc(N)n1 [Cro, ceftriaxone]
MIC range (96 clinical isolates): <0.002 to 0.125 µg/mL | MIC (Neisseria gonorrhoeae, strain CDC1 (GCREF2012 016)): 0.031 µg/mL (≈ 0.0559 µM) | MIC (Neisseria gonorrhoeae, strain CDC2 (GCREF2012 045)): 0.031 µg/mL (≈ 0.0559 µM) | MIC (Neisseria gonorrhoeae, strain CDC3 (GCREF2013 013)): 0.031 µg/mL (≈ 0.0559 µM) | MIC (Neisseria gonorrhoeae, strain CDC4 (GCREF2013 030)): 0.031 µg/mL (≈ 0.0559 µM) | MIC (Neisseria gonorrhoeae, strain CDC5 (GCREF2012 001)): 0.063 µg/mL (≈ 0.114 µM) | MIC (Neisseria gonorrhoeae, strain CDC6 (GCREF2012 002)): 0.063 µg/mL (≈ 0.114 µM) | MIC (Neisseria gonorrhoeae, strain CDC8 (GCREF2012 004)): 0.016 µg/mL (≈ 0.0289 µM) | MIC (Neisseria gonorrhoeae, strain CDC9 (GCREF2012 005)): 0.031 µg/mL (≈ 0.0559 µM) | MIC (Neisseria gonorrhoeae, strain CDC10 (GCREF2012 006)): 0.031 µg/mL (≈ 0.0559 µM) | MIC (Neisseria gonorrhoeae, strain CDC11 (GCREF2012 007)): 0.031 µg/mL (≈ 0.0559 µM) | MIC (Neisseria gonorrhoeae, strain CDC12 (GCREF2012 008)): 0.031 µg/mL (≈ 0.0559 µM) | MIC (Neisseria gonorrhoeae, strain CDC13 (GCREF2012 009)): 0.031 µg/mL (≈ 0.0559 µM) | MIC (Neisseria gonorrhoeae, strain CDC14 (GCREF2012 010)): 0.031 µg/mL (≈ 0.0559 µM) | MIC (Neisseria gonorrhoeae, strain CDC15 (GCREF2012 011)): 0.008 µg/mL (≈ 0.0144 µM) | MIC (Neisseria gonorrhoeae, strain CDC16 (GCREF2012 012)): 0.063 µg/mL (≈ 0.114 µM) | MIC (Neisseria gonorrhoeae, strain CDC18 (GCREF2012 014)): 0.063 µg/mL (≈ 0.114 µM) | MIC (Neisseria gonorrhoeae, strain CDC19 (GCREF2012 015)): 0.008 µg/mL (≈ 0.0144 µM) | MIC (Neisseria gonorrhoeae, strain CDC20 (GCREF2012 017)): 0.063 µg/mL (≈ 0.114 µM) | MIC (Neisseria gonorrhoeae, strain CDC21 (GCREF2012 018)): 0.031 µg/mL (≈ 0.0559 µM) | MIC (Neisseria gonorrhoeae, strain CDC22 (GCREF2012 019)): 0.008 µg/mL (≈ 0.0144 µM) | MIC (Neisseria gonorrhoeae, strain CDC23 (GCREF2012 020)): 0.031 µg/mL (≈ 0.0559 µM) | MIC (Neisseria gonorrhoeae, strain CDC24 (GCREF2012 021)): 0.063 µg/mL (≈ 0.114 µM) | MIC (Neisseria gonorrhoeae, strain CDC25 (GCREF2012 022)): 0.031 µg/mL (≈ 0.0559 µM) | MIC (Neisseria gonorrhoeae, strain CDC26 (GCREF2012 023)): 0.031 µg/mL (≈ 0.0559 µM) | MIC (Neisseria gonorrhoeae, strain CDC27 (GCREF2012 024)): 0.031 µg/mL (≈ 0.0559 µM) | MIC (Neisseria gonorrhoeae, strain CDC28 (GCREF2012 025)): 0.031 µg/mL (≈ 0.0559 µM) | MIC (Neisseria gonorrhoeae, strain CDC29 (GCREF2012 026)): 0.016 µg/mL (≈ 0.0289 µM) | MIC (Neisseria gonorrhoeae, strain CDC30 (GCREF2012 027)): 0.031 µg/mL (≈ 0.0559 µM) | MIC (Neisseria gonorrhoeae, strain CDC31 (GCREF2012 028)): 0.031 µg/mL (≈ 0.0559 µM) | MIC (Neisseria gonorrhoeae, strain CDC32 (GCREF2012 029)): 0.063 µg/mL (≈ 0.114 µM) | MIC (Neisseria gonorrhoeae, strain CDC33 (GCREF2012 030)): 0.125 µg/mL (≈ 0.225 µM) | MIC (Neisseria gonorrhoeae, strain CDC34 (GCREF2012 031)): 0.125 µg/mL (≈ 0.225 µM) | MIC (Neisseria gonorrhoeae, strain CDC35 (GCREF2012 032)): 0.125 µg/mL (≈ 0.225 µM) | MIC (Neisseria gonorrhoeae, strain CDC36 (GCREF2012 033)): 0.031 µg/mL (≈ 0.0559 µM) | MIC (Neisseria gonorrhoeae, strain CDC37 (GCREF2012 034)): 0.031 µg/mL (≈ 0.0559 µM) | MIC (Neisseria gonorrhoeae, strain CDC38 (GCREF2012 035)): 0.031 µg/mL (≈ 0.0559 µM) | MIC (Neisseria gonorrhoeae, strain CDC39 (GCREF2012 036)): 0.031 µg/mL (≈ 0.0559 µM) | MIC (Neisseria gonorrhoeae, strain CDC40 (GCREF2012 037)): 0.031 µg/mL (≈ 0.0559 µM) | MIC (Neisseria gonorrhoeae, strain CDC41 (GCREF2012 038)): 0.031 µg/mL (≈ 0.0559 µM) | MIC (Neisseria gonorrhoeae, strain CDC42 (GCREF2012 039)): 0.031 µg/mL (≈ 0.0559 µM) | MIC (Neisseria gonorrhoeae, strain CDC43 (GCREF2012 040)): 0.031 µg/mL (≈ 0.0559 µM) | MIC (Neisseria gonorrhoeae, strain CDC45 (GCREF2012 042)): 0.125 µg/mL (≈ 0.225 µM) | MIC (Neisseria gonorrhoeae, strain CDC46 (GCREF2012 043)): 0.031 µg/mL (≈ 0.0559 µM) | MIC (Neisseria gonorrhoeae, strain CDC47 (GCREF2012 044)): 0.031 µg/mL (≈ 0.0559 µM) | MIC (Neisseria gonorrhoeae, strain CDC48 (GCREF2012 046)): 0.031 µg/mL (≈ 0.0559 µM) | MIC (Neisseria gonorrhoeae, strain CDC49 (GCREF2012 047)): 0.031 µg/mL (≈ 0.0559 µM) | MIC (Neisseria gonorrhoeae, strain CDC50 (GCREF2012 048)): 0.063 µg/mL (≈ 0.114 µM) | MIC (Neisseria gonorrhoeae, strain CDC51 (GCREF2012 049)): 0.008 µg/mL (≈ 0.0144 µM) | MIC (Neisseria gonorrhoeae, strain CDC52 (GCREF2012 050)): 0.008 µg/mL (≈ 0.0144 µM) | MIC (Neisseria gonorrhoeae, strain CDC53 (GCREF2012 051)): 0.004 µg/mL (≈ 0.00721 µM) | MIC (Neisseria gonorrhoeae, strain CDC54 (GCREF2012 052)): 0.004 µg/mL (≈ 0.00721 µM) | MIC (Neisseria gonorrhoeae, strain CDC55 (GCREF2013 001)): 0.031 µg/mL (≈ 0.0559 µM) | MIC (Neisseria gonorrhoeae, strain CDC56 (GCREF2013 002)): 0.016 µg/mL (≈ 0.0289 µM) | MIC (Neisseria gonorrhoeae, strain CDC57 (GCREF2013 003)): 0.004 µg/mL (≈ 0.00721 µM) | MIC (Neisseria gonorrhoeae, strain CDC58 (GCREF2013 004)): 0.004 µg/mL (≈ 0.00721 µM) | MIC (Neisseria gonorrhoeae, strain CDC59 (GCREF2013 044)): 0.004 µg/mL (≈ 0.00721 µM) | MIC (Neisseria gonorrhoeae, strain CDC60 (GCREF2013 005)): 0.031 µg/mL (≈ 0.0559 µM) | MIC (Neisseria gonorrhoeae, strain CDC61 (GCREF2013 006)): 0.031 µg/mL (≈ 0.0559 µM) | MIC (Neisseria gonorrhoeae, strain CDC62 (GCREF2013 007)): 0.008 µg/mL (≈ 0.0144 µM) | MIC (Neisseria gonorrhoeae, strain CDC64 (GCREF2013 009)): 0.008 µg/mL (≈ 0.0144 µM) | MIC (Neisseria gonorrhoeae, strain CDC65 (GCREF2013 010)): 0.016 µg/mL (≈ 0.0289 µM) | MIC (Neisseria gonorrhoeae, strain CDC66 (GCREF2013 011)): 0.008 µg/mL (≈ 0.0144 µM) | MIC (Neisseria gonorrhoeae, strain CDC67 (GCREF2013 014)): 0.008 µg/mL (≈ 0.0144 µM) | MIC (Neisseria gonorrhoeae, strain CDC68 (GCREF2013 016)): 0.016 µg/mL (≈ 0.0289 µM) | MIC (Neisseria gonorrhoeae, strain CDC69 (GCREF2013 017)): 0.031 µg/mL (≈ 0.0559 µM) | MIC (Neisseria gonorrhoeae, strain CDC70 (GCREF2013 018)): 0.004 µg/mL (≈ 0.00721 µM) | MIC (Neisseria gonorrhoeae, strain CDC71 (GCREF2013 019)): 0.008 µg/mL (≈ 0.0144 µM) | MIC (Neisseria gonorrhoeae, strain CDC72 (GCREF2013 020)): 0.031 µg/mL (≈ 0.0559 µM) | MIC (Neisseria gonorrhoeae, strain CDC73 (GCREF2013 021)): 0.008 µg/mL (≈ 0.0144 µM) | MIC (Neisseria gonorrhoeae, strain CDC74 (GCREF2013 022)): 0.008 µg/mL (≈ 0.0144 µM) | MIC (Neisseria gonorrhoeae, strain CDC75 (GCREF2013 023)): 0.016 µg/mL (≈ 0.0289 µM) | MIC (Neisseria gonorrhoeae, strain CDC76 (GCREF2013 024)): 0.016 µg/mL (≈ 0.0289 µM) | MIC (Neisseria gonorrhoeae, strain CDC77 (GCREF2013 025)): 0.008 µg/mL (≈ 0.0144 µM) | MIC (Neisseria gonorrhoeae, strain CDC78 (GCREF2013 026)): 0.016 µg/mL (≈ 0.0289 µM) | MIC (Neisseria gonorrhoeae, strain CDC79 (GCREF2013 027)): 0.016 µg/mL (≈ 0.0289 µM) | MIC (Neisseria gonorrhoeae, strain CDC80 (GCREF2013 028)): 0.008 µg/mL (≈ 0.0144 µM) | MIC (Neisseria gonorrhoeae, strain CDC81 (GCREF2013 029)): 0.031 µg/mL (≈ 0.0559 µM) | MIC (Neisseria gonorrhoeae, strain CDC82 (GCREF2013 031)): 0.031 µg/mL (≈ 0.0559 µM) | MIC (Neisseria gonorrhoeae, strain CDC83 (GCREF2013 032)): 0.008 µg/mL (≈ 0.0144 µM) | MIC (Neisseria gonorrhoeae, strain CDC84 (GCREF2013 033)): 0.008 µg/mL (≈ 0.0144 µM) | MIC (Neisseria gonorrhoeae, strain CDC86 (GCREF2013 035)): 0.008 µg/mL (≈ 0.0144 µM) | MIC (Neisseria gonorrhoeae, strain CDC87 (GCREF2013 036)): 0.063 µg/mL (≈ 0.114 µM) | MIC (Neisseria gonorrhoeae, strain CDC88 (GCREF2013 037)): 0.031 µg/mL (≈ 0.0559 µM) | MIC (Neisseria gonorrhoeae, strain CDC89 (GCREF2013 038)): 0.008 µg/mL (≈ 0.0144 µM) | MIC (Neisseria gonorrhoeae, strain CDC90 (GCREF2013 039)): 0.031 µg/mL (≈ 0.0559 µM) | MIC (Neisseria gonorrhoeae, strain CDC91 (GCREF2013 040)): 0.125 µg/mL (≈ 0.225 µM) | MIC (Neisseria gonorrhoeae, strain CDC92 (GCREF2013 041)): 0.031 µg/mL (≈ 0.0559 µM) | MIC (Neisseria gonorrhoeae, strain CDC93 (GCREF2013 042)): 0.016 µg/mL (≈ 0.0289 µM) | MIC (Neisseria gonorrhoeae, strain CDC94 (GCREF2013 043)): 0.008 µg/mL (≈ 0.0144 µM) | MIC (Neisseria gonorrhoeae, strain CDC95 (GCREF2013 045)): 0.031 µg/mL (≈ 0.0559 µM) | MIC (Neisseria gonorrhoeae, strain CDC96 (GCREF2013 046)): 0.016 µg/mL (≈ 0.0289 µM) | MIC (Neisseria gonorrhoeae, strain CDC97 (GCREF2013 047)): 0.031 µg/mL (≈ 0.0559 µM) | MIC (Neisseria gonorrhoeae, strain CDC98 (GCREF2013 048)): 0.008 µg/mL (≈ 0.0144 µM) | MIC (Neisseria gonorrhoeae, strain CDC99 (GCREF2013 012)): 0.008 µg/mL (≈ 0.0144 µM) | MIC (Neisseria gonorrhoeae, strain CDC100 (GCREF2013 015)): 0.031 µg/mL (≈ 0.0559 µM) | MIC50 (Neisseria gonorrhoeae, 96 clinical isolates, read-out: MIC50): 0.031 µg/mL (≈ 0.0559 µM) | MIC90 (Neisseria gonorrhoeae, 96 clinical isolates, read-out: MIC90): 0.063 µg/mL (≈ 0.114 µM)
